Data published in paper PMC12931155, “Colorectal Cancer Cell's Weapon: RNF32 Engages SPP1^+ Macrophages to Foster Liver Metastasis, Targeted by Indole‐3‐Acetic Acid” (Advanced Science, 2025).

Biological target: T1, RNF32 (GFP-RNF32) (Homo sapiens, UniProt Q9H0A6)
T1 construct: GFP-RNF32 fusion from plasmid, expressed in HCT116 cells, diluted cell lysate (not purified)
Experiment: microscale thermophoresis, GFP-RNF32 in HCT116 lysate
Type: biochemical

T1 sequence (Q9H0A6 whole entry, the tested form may be a part): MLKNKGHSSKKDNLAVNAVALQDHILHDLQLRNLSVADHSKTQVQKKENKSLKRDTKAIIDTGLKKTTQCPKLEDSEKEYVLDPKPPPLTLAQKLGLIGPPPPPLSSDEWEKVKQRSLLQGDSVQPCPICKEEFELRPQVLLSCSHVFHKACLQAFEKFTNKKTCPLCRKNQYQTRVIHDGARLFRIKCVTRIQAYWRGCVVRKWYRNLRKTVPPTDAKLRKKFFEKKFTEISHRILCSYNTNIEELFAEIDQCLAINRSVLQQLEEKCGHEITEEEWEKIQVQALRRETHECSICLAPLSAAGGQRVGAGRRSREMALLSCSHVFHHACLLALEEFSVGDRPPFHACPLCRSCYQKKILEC

Kd: 41.3 µM
Compound: O=C(O)Cc1c[nH]c2ccccc12 [indole‐3‐acetic acid]
